Assay results taken from patent US9944646B2, “Bicyclic azaheterocyclobenzylamines as PI3K inhibitors” (Incyte Corporation, priority 2012, dated 2018).

Target: PI3Kδ (Homo sapiens (Human), UniProt O00329)
Experiment: PI3K Enzyme Assay (Example A2), [γ-33P]ATP filter plate
Type: biochemical
Method: Example A2: PI3K Enzyme Assay
Lipid kinase substrate, phosphoinositol-4,5-bisphosphate (PIP2), are purchased from Echelon Biosciences (Salt Lake City, Utah). PI3K isoforms α, β, δ and γ are purchased from Millipore (Bedford, Mass.). ATP, MgCl2, DTT, EDTA, MOPS and CHAPS are purchased from Sigma-Aldrich (St. Louis, Mo.).
The kinase reaction are conducted in clear-bottom 96-well plate from Thermo Fisher Scientific in a final volume of 24 μL. Inhibitors are first diluted serially in DMSO and added to the plate wells before the addition of other reaction components. The final concentration of DMSO in the assay is 0.5%. The PI3K assays are carried out at room temperature in 20 mM MOPS, pH 6.7, 10 mM MgCl2, 5 mM DTT and CHAPS 0.03%. The reaction mixture is prepared containing 50 µM PIP2, kinase and varying concentration of inhibitors. Reactions are initiated by the addition of ATP containing 2.2 μCi [γ-^33P]ATP to a final concentration of 1000 μM. The final concentration of PI3K isoforms α, β, δ and γ in the assay were 1.3, 9.4, 2.9 and 10.8 nM, respectively. Reactions are incubated for 180 minutes and terminated by the addition of 100 μL of 1 M potassium phosphate pH 8.0, 30 mM EDTA quench buffer. A 100 μL aliquot of the reaction solution are then transferred to 96-well Millipore MultiScreen IP […] PVDF filter plate (The filter plate is prewetted with 200 μL 100% ethanol, distilled water, and 1 M potassium phosphate pH 8.0, respectively). The filter plate is aspirated on a Millipore Manifold under vacuum and washed with 18×200 μL wash buffer containing 1 M potassium phosphate pH 8.0 and 1 mM ATP. After drying by aspiration and blotting, the plate is air dried in an incubator at 37° C. overnight. Packard TopCount adapter (Millipore) is then attached to the plate followed with addition of 120 μL Microscint 20 scintillation cocktail (Perkin Elmer) in each well. After the plate sealing, the radioactivity of the product is determined by scintillation counting on Topcount (Perkin-Elmer). IC50 determination is performed by fitting the curve of percent control activity versus the log of the inhibitor concentration using the GraphPad Prism 3.0 software.

PI3Kδ, sequence (O00329 whole entry): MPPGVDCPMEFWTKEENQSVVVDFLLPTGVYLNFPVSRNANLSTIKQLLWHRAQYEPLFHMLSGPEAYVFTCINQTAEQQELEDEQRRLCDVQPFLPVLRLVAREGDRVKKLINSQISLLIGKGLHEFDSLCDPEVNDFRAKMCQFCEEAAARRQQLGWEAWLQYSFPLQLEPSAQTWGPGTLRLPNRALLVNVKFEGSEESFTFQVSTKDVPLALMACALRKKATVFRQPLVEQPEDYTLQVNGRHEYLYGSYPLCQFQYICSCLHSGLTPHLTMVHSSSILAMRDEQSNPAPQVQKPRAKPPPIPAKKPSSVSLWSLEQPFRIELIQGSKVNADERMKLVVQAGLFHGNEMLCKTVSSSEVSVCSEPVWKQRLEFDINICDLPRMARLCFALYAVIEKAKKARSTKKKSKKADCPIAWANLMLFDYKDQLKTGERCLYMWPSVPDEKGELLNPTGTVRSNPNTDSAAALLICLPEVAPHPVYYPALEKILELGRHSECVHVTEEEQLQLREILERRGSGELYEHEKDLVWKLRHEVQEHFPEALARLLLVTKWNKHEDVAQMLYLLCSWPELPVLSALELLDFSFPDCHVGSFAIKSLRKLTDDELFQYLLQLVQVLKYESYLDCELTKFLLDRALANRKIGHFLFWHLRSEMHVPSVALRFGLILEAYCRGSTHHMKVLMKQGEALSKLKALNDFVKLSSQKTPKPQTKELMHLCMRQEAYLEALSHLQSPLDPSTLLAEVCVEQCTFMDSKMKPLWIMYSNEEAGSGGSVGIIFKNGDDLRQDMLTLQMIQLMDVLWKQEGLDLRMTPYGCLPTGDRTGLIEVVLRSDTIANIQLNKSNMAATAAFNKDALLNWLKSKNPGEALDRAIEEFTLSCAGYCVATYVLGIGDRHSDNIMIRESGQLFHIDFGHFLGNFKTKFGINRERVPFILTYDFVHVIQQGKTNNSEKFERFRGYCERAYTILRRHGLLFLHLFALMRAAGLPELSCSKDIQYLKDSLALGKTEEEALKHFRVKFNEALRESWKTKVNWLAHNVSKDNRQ
PI3Kδ, sequence (P27986 whole entry partner): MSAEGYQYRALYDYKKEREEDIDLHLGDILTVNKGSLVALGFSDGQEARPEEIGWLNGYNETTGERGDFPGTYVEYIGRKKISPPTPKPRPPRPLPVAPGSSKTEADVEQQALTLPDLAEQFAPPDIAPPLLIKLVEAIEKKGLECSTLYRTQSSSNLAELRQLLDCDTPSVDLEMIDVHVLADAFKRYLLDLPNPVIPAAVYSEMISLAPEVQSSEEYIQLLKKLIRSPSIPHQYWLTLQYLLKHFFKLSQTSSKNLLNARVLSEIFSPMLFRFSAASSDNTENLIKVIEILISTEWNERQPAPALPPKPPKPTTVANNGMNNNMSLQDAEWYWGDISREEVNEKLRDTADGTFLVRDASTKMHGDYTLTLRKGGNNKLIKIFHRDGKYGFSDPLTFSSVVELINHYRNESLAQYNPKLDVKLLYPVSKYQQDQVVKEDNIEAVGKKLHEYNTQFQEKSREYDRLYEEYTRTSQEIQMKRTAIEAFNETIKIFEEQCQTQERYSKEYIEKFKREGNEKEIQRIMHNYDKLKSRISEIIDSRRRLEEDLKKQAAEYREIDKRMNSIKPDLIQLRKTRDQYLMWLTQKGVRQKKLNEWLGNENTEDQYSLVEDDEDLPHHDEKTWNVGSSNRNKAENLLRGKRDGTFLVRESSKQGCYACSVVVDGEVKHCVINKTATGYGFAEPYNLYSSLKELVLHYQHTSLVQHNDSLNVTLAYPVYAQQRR

Row | SMILES | IC50 [nM]
1 | Cc1nn(C(C)c2cc(Cl)c(C#N)c3c2OC(C)CN(CC(C)(C)O)C3)c2ncnc(N)c12 (single isomer, unassigned) [Example 66, 9-[1-(4-Amino-3-methyl-1H-pyrazolo[3,4-d]pyrimidin-1-yl)ethyl]-7-chloro-4-(2-hydroxy-2-methylpropyl)-2-methyl-2,3,4,5-tetrahydro-1,4-benzoxazepine-6-carbonitrile] | ≤ 100
2 | CC(=O)NC1CC(N2Cc3c(C#N)c(Cl)cc(C(C)n4nc(C)c5c(N)ncnc54)c3OC(C)C2)C1 (single isomer, unassigned) [Example 68, N-{3-[9-[1-(4-Amino-3-methyl-1H-pyrazolo[3,4-d]pyrimidin-1-yl)ethyl]-7-chloro-6-cyano-2-methyl-2,3-dihydro-1,4-benzoxazepin-4(5H)-yl]cyclobutyl}acetamide] | ≤ 100
3 | CCC1CN(CCO)Cc2c(C#N)c(Cl)cc(C(C)n3nc(C)c4c(N)ncnc43)c2O1 (single isomer, unassigned) [Example 69, 9-[1-(4-Amino-3-methyl-1H-pyrazolo[3,4-d]pyrimidin-1-yl)ethyl]-7-chloro-2-ethyl-4-(2-hydroxyethyl)-2,3,4,5-tetrahydro-1,4-benzoxazepine-6-carbonitrile] | ≤ 100
4 | CCC1CN(CCO)Cc2c(C#N)c(Cl)cc(C(C)n3nc(C)c4c(N)ncnc43)c2O1 (single isomer, unassigned) [Example 70, 9-[1-(4-Amino-3-methyl-1H-pyrazolo[3,4-d]pyrimidin-1-yl)ethyl]-7-chloro-2-ethyl-4-(2-hydroxyethyl)-2,3,4,5-tetrahydro-1,4-benzoxazepine-6-carbonitrile] | ≤ 100
5 | CC(=O)N1CC(N2Cc3c(F)c(Cl)cc(C(C)n4nc(C)c5c(N)ncnc54)c3OC(C)C2=O)C1 (single isomer, unassigned) [Example 72, 4-(1-Acetylazetidin-3-yl)-9-[1-(4-amino-3-methyl-1H-pyrazolo[3,4-d]pyrimidin-1-yl)ethyl]-7-chloro-6-fluoro-2-methyl-4,5-dihydro-1,4-benzoxazepin-3(2H)-one] | 100 to 500
6 | Cc1nn(C(C)c2cc(Cl)c(F)c3c2OC(C)CN(C[C@@H](C)O)C3)c2ncnc(N)c12 (single isomer, unassigned) [Example 78] | ≤ 100
7 | COC(=O)N1CC(N2Cc3c(F)c(Cl)cc(C(C)n4nc(C)c5c(N)ncnc54)c3OC(C)C2)C1 (single isomer, unassigned) [Example 80, methyl 3-[9-[1-(4-amino-3-methyl-1H-pyrazolo[3,4-d]pyrimidin-1-yl)ethyl]-7-chloro-6-fluoro-2-methyl-2,3-dihydro-1,4-benzoxazepin-4(5H)-yl]azetidine-1-carboxylate] | ≤ 100
8 | Cc1nn(C(C)c2cc(Cl)c(F)c3c2OC(C)CN(C2CN(S(N)(=O)=O)C2)C3)c2ncnc(N)c12 (single isomer, unassigned) [Example 81, 3-[9-[1-(4-amino-3-methyl-1H-pyrazolo[3,4-d]pyrimidin-1-yl)ethyl]-7-chloro-6-fluoro-2-methyl-2,3-dihydro-1,4-benzoxazepin-4(5H)-yl]azetidine-1-sulfonamide] | ≤ 100
9 | Cc1nn(C(C)c2cc(Cl)c(F)c3c2OC(C)CN(C2CN(C(N)=O)C2)C3)c2ncnc(N)c12 (single isomer, unassigned) [Example 83, 3-[9-[1-(4-amino-3-methyl-1H-pyrazolo[3,4-d]pyrimidin-1-yl)ethyl]-7-chloro-6-fluoro-2-methyl-2,3-dihydro-1,4-benzoxazepin-4(5H)-yl]azetidine-1-carboxamide] | ≤ 100
10 | Cc1nn(C(C)c2cc(Cl)c(F)c3c2OC(C)CN(C2CN(C(N)=O)C2)C3)c2ncnc(N)c12 (single isomer, unassigned) [Example 84, 3-[9-[1-(4-amino-3-methyl-1H-pyrazolo[3,4-d]pyrimidin-1-yl)ethyl]-7-chloro-6-fluoro-2-methyl-2,3-dihydro-1,4-benzoxazepin-4(5H)-yl]azetidine-1-carboxamide] | ≤ 100
11 | CCC(=O)N1CC(N2Cc3c(C#N)c(Cl)cc(C(C)n4nc(C)c5c(N)ncnc54)c3OC(C)C2)C1 (single isomer, unassigned) [Example 95, 9-[1-(4-amino-3-methyl-1H-pyrazolo[3,4-d]pyrimidin-1-yl)ethyl]-7-chloro-2-methyl-4-(1-propionylazetidin-3-yl)-2,3,4,5-tetrahydro-1,4-benzoxazepine-6-carbonitrile] | ≤ 100
12 | CCNC(=O)N1CC(N2Cc3c(C#N)c(Cl)cc(C(C)n4nc(C)c5c(N)ncnc54)c3OC(C)C2)C1 (single isomer, unassigned) [Example 98, 3-[9-[1-(4-amino-3-methyl-1H-pyrazolo[3,4-d]pyrimidin-1-yl)ethyl]-7-chloro-6-cyano-2-methyl-2,3-dihydro-1,4-benzoxazepin-4(5H)-yl]-N-ethylazetidine-1-carboxamide] | ≤ 100

Further lines, results first:

Row | IC50 [nM] | SMILES
13 | ≤ 100 | CC(=O)NC1CC(N2Cc3c(C#N)c(Cl)cc(C(C)n4nc(C)c5c(N)ncnc54)c3OC(C)C2)C1 (single isomer, unassigned) [Example 67, N-{3-[9-[1-(4-Amino-3-methyl-1H-pyrazolo[3,4-d]pyrimidin-1-yl)ethyl]-7-chloro-6-cyano-2-methyl-2,3-dihydro-1,4-benzoxazepin-4(5H)-yl]cyclobutyl}acetamide]
14 | ≤ 100 | Cc1nn(C(C)c2cc(Cl)c(F)c3c2OC(C)CN(C[C@@H](C)O)C3)c2ncnc(N)c12 (single isomer, unassigned) [Example 77]
15 | 100 to 500 | Cc1nn(C(C)c2cc(Cl)c(F)c3c2O[C@@H](C)CN(C2CN(CC(N)=O)C2)C3)c2ncnc(N)c12 (single isomer, unassigned) [Example 87]
16 | ≤ 100 | Cc1nn(C(C)c2cc(Cl)c(F)c3c2O[C@@H](C)CN(C2CN(CC(N)=O)C2)C3)c2ncnc(N)c12 (single isomer, unassigned) [Example 88]
17 | ≤ 100 | Cc1nn(C(C)c2cc(Cl)c(C#N)c3c2OC(C)CN(C2CN(S(C)(=O)=O)C2)C3)c2ncnc(N)c12 (single isomer, unassigned) [Example 93, 9-[1-(4-amino-3-methyl-1H-pyrazolo[3,4-d]pyrimidin-1-yl)ethyl]-7-chloro-2-methyl-4-[1-(methylsulfonyl)azetidin-3-yl]-2,3,4,5-tetrahydro-1,4-benzoxazepine-6-carbonitrile]
18 | ≤ 100 | Cc1nn(C(C)c2cc(Cl)c(C#N)c3c2OC(C)CN(C2CN(S(C)(=O)=O)C2)C3)c2ncnc(N)c12 (single isomer, unassigned) [Example 94, 9-[1-(4-amino-3-methyl-1H-pyrazolo[3,4-d]pyrimidin-1-yl)ethyl]-7-chloro-2-methyl-4-[1-(methylsulfonyl)azetidin-3-yl]-2,3,4,5-tetrahydro-1,4-benzoxazepine-6-carbonitrile]
19 | ≤ 100 | CCNC(=O)N1CC(N2Cc3c(C#N)c(Cl)cc(C(C)n4nc(C)c5c(N)ncnc54)c3OC(C)C2)C1 (single isomer, unassigned) [Example 97, 3-[9-[1-(4-amino-3-methyl-1H-pyrazolo[3,4-d]pyrimidin-1-yl)ethyl]-7-chloro-6-cyano-2-methyl-2,3-dihydro-1,4-benzoxazepin-4(5H)-yl]-N-ethylazetidine-1-carboxamide]
